Experimental data: the supplement of paper PMC10307832

What was measured:
Assay in all cases: relative viability (nuclei count vs DMSO), 5 days (fraction); higher = more cells survive
201T = tested on: 201T
Summary of the method: (§1)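 Medians of duplicate plates are given as relative viability. That measure is the nuclei count in treated wells divided by the count in vehicle wells. Counts were taken on 4× images of lung cancer cell lines in 1536-well plates, 5 days after pin-tool dosing the day after seeding with one drug alone or a fixed anchor-drug dose plus five library-drug doses (not always all listed) in √10 steps.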

COR-L23 = tested on: COR-L23
Summary of the method: as §1

EPLC-272H = tested on: EPLC-272H
Summary of the method: as §1

H3255 = tested on: H3255
Summary of the method: as §1

HCC-44 = tested on: HCC-44
Summary of the method: as §1

LOU-NH91 = tested on: LOU-NH91
Summary of the method: as §1

NCI-H1563 = tested on: NCI-H1563
Summary of the method: as §1

NCI-H1650 = tested on: NCI-H1650
Summary of the method: as §1

NCI-H1734 = tested on: NCI-H1734
Summary of the method: as §1

NCI-H1793 = tested on: NCI-H1793
Summary of the method: as §1

NCI-H1993 = tested on: NCI-H1993
Summary of the method: as §1

NCI-H2023 = tested on: NCI-H2023
Summary of the method: as §1

NCI-H2085 = tested on: NCI-H2085
Summary of the method: as §1

NCI-H2170 = tested on: NCI-H2170
Summary of the method: as §1

NCI-H2347 = tested on: NCI-H2347
Summary of the method: as §1

NCI-H2405 = tested on: NCI-H2405
Summary of the method: as §1

NCI-H3122 = tested on: NCI-H3122
Summary of the method: as §1

NCI-H441 = tested on: NCI-H441
Summary of the method: as §1

NCI-H520 = tested on: NCI-H520
Summary of the method: as §1

NCI-H647 = tested on: NCI-H647
Summary of the method: as §1

PC-14 = tested on: PC-14
Summary of the method: as §1

RERF-LC-KJ = tested on: RERF-LC-KJ
Summary of the method: as §1

SW 900 = tested on: SW 900
Summary of the method: as §1

Question: For `CC1(C)CCC(c2ccc(Cl)cc2)=C(CN2CCN(c3ccc(C(=O)NS(=O)(=O)c4ccc(N[C@H](CCN5CCOCC5)CSc5ccccc5)c(S(=O)(=O)C(F)(F)F)c4)cc3)CC2)C1` [Navitoclax] + CCNC(=O)c1noc(-c2cc(C(C)C)c(O)cc2O)c1-c1ccc(CN2CCOCC2)cc1 [Luminespib] (partner 0.01 µM), which relative viability (201T; first compound 0.005 µM) is on record?
Answer: 1.05

Question: And the relative viability (201T; first compound 0.01581 µM)?
Answer: 1.1

Question: What about the relative viability (201T; first compound 0.05 µM) of the same compound?
Answer: 0.982

Question: What about the relative viability (201T; first compound 0.1581 µM) of the same compound?
Answer: 1.03

Question: And the relative viability (201T; first compound 0.5 µM)?
Answer: 1.08

Question: What about the relative viability (COR-L23; first compound 0.005 µM) of the same compound?
Answer: 0.605

Question: And the relative viability (COR-L23; first compound 0.01581 µM)?
Answer: 0.606

Question: And the relative viability (COR-L23; first compound 0.05 µM)?
Answer: 0.738

Question: And the relative viability (COR-L23; first compound 0.1581 µM)?
Answer: 0.595

Question: What about the relative viability (COR-L23; first compound 0.5 µM) of the same compound?
Answer: 0.666

Question: And the relative viability (EPLC-272H; first compound 0.005 µM)?
Answer: 0.391

Question: And the relative viability (EPLC-272H; first compound 0.05 µM)?
Answer: 1

Question: And the relative viability (EPLC-272H; first compound 0.1581 µM)?
Answer: 0.647

Question: What about the relative viability (EPLC-272H; first compound 0.5 µM) of the same compound?
Answer: 0.133

Question: And the relative viability (H3255; first compound 0.005 µM)?
Answer: 0.874

Question: What about the relative viability (H3255; first compound 0.01581 µM) of the same compound?
Answer: 0.877

Question: And the relative viability (H3255; first compound 0.05 µM)?
Answer: 0.834

Question: What about the relative viability (H3255; first compound 0.1581 µM) of the same compound?
Answer: 0.869

Question: And the relative viability (H3255; first compound 0.5 µM)?
Answer: 0.741

Question: What about the relative viability (HCC-44; first compound 0.05 µM) of the same compound?
Answer: 1.33

Question: What about the relative viability (HCC-44; first compound 0.5 µM) of the same compound?
Answer: 0.823

Question: And the relative viability (LOU-NH91; first compound 0.005 µM)?
Answer: 0.349

Question: And the relative viability (LOU-NH91; first compound 0.01581 µM)?
Answer: 0.362

Question: What about the relative viability (LOU-NH91; first compound 0.05 µM) of the same compound?
Answer: 0.327

Question: And the relative viability (LOU-NH91; first compound 0.1581 µM)?
Answer: 0.321

Question: And the relative viability (LOU-NH91; first compound 0.5 µM)?
Answer: 0.275

Question: And the relative viability (NCI-H1563; first compound 0.005 µM)?
Answer: 0.53

Question: What about the relative viability (NCI-H1563; first compound 0.01581 µM) of the same compound?
Answer: 0.507

Question: And the relative viability (NCI-H1563; first compound 0.05 µM)?
Answer: 0.485

Question: What about the relative viability (NCI-H1563; first compound 0.1581 µM) of the same compound?
Answer: 0.557

Question: What about the relative viability (NCI-H1563; first compound 0.5 µM) of the same compound?
Answer: 0.475

Question: What about the relative viability (NCI-H1650; first compound 0.005 µM) of the same compound?
Answer: 0.214

Question: What about the relative viability (NCI-H1650; first compound 0.01581 µM) of the same compound?
Answer: 0.21

Question: And the relative viability (NCI-H1650; first compound 0.05 µM)?
Answer: 0.167

Question: And the relative viability (NCI-H1650; first compound 0.1581 µM)?
Answer: 0.206

Question: And the relative viability (NCI-H1650; first compound 0.5 µM)?
Answer: 0.192

Question: What about the relative viability (NCI-H1734; first compound 0.005 µM) of the same compound?
Answer: 0.174

Question: And the relative viability (NCI-H1734; first compound 0.01581 µM)?
Answer: 0.191

Question: What about the relative viability (NCI-H1734; first compound 0.1581 µM) of the same compound?
Answer: 0.182

Question: What about the relative viability (NCI-H1734; first compound 0.5 µM) of the same compound?
Answer: 0.16

Question: What about the relative viability (NCI-H1793; first compound 0.005 µM) of the same compound?
Answer: 0.262

Question: What about the relative viability (NCI-H1793; first compound 0.01581 µM) of the same compound?
Answer: 0.177

Question: And the relative viability (NCI-H1793; first compound 0.1581 µM)?
Answer: 0.216

Question: What about the relative viability (NCI-H1793; first compound 0.5 µM) of the same compound?
Answer: 0.17

Question: What about the relative viability (NCI-H1993; first compound 0.005 µM) of the same compound?
Answer: 0.813

Question: What about the relative viability (NCI-H1993; first compound 0.01581 µM) of the same compound?
Answer: 0.891

Question: And the relative viability (NCI-H1993; first compound 0.05 µM)?
Answer: 0.824

Question: And the relative viability (NCI-H1993; first compound 0.1581 µM)?
Answer: 0.913

Question: What about the relative viability (NCI-H1993; first compound 0.5 µM) of the same compound?
Answer: 0.803

Question: And the relative viability (NCI-H2023; first compound 0.005 µM)?
Answer: 0.782

Question: And the relative viability (NCI-H2023; first compound 0.01581 µM)?
Answer: 0.921

Question: And the relative viability (NCI-H2023; first compound 0.05 µM)?
Answer: 0.83

Question: What about the relative viability (NCI-H2023; first compound 0.1581 µM) of the same compound?
Answer: 0.568

Question: What about the relative viability (NCI-H2023; first compound 0.5 µM) of the same compound?
Answer: 0.594

Question: And the relative viability (NCI-H2085; first compound 0.005 µM)?
Answer: 0.488

Question: And the relative viability (NCI-H2085; first compound 0.01581 µM)?
Answer: 0.538

Question: And the relative viability (NCI-H2085; first compound 0.05 µM)?
Answer: 0.484

Question: And the relative viability (NCI-H2085; first compound 0.1581 µM)?
Answer: 0.46

Question: And the relative viability (NCI-H2085; first compound 0.5 µM)?
Answer: 0.383

Question: What about the relative viability (NCI-H2170; first compound 0.005 µM) of the same compound?
Answer: 0.519

Question: What about the relative viability (NCI-H2170; first compound 0.01581 µM) of the same compound?
Answer: 0.806

Question: And the relative viability (NCI-H2170; first compound 0.05 µM)?
Answer: 0.552

Question: What about the relative viability (NCI-H2170; first compound 0.1581 µM) of the same compound?
Answer: 0.67

Question: What about the relative viability (NCI-H2170; first compound 0.5 µM) of the same compound?
Answer: 0.538

Question: And the relative viability (NCI-H2347; first compound 0.005 µM)?
Answer: 0.467

Question: What about the relative viability (NCI-H2347; first compound 0.01581 µM) of the same compound?
Answer: 0.62

Question: What about the relative viability (NCI-H2347; first compound 0.1581 µM) of the same compound?
Answer: 0.372

Question: What about the relative viability (NCI-H2347; first compound 0.5 µM) of the same compound?
Answer: 0.312

Question: And the relative viability (NCI-H2405; first compound 0.005 µM)?
Answer: 0.89

Question: And the relative viability (NCI-H2405; first compound 0.01581 µM)?
Answer: 0.727

Question: And the relative viability (NCI-H2405; first compound 0.05 µM)?
Answer: 0.755

Question: What about the relative viability (NCI-H2405; first compound 0.1581 µM) of the same compound?
Answer: 0.765

Question: And the relative viability (NCI-H2405; first compound 0.5 µM)?
Answer: 0.702

Question: What about the relative viability (NCI-H3122; first compound 0.005 µM) of the same compound?
Answer: 0.09

Question: And the relative viability (NCI-H3122; first compound 0.01581 µM)?
Answer: 0.0825

Question: And the relative viability (NCI-H3122; first compound 0.05 µM)?
Answer: 0.11

Question: And the relative viability (NCI-H3122; first compound 0.1581 µM)?
Answer: 0.083

Question: What about the relative viability (NCI-H3122; first compound 0.5 µM) of the same compound?
Answer: 0.0991

Question: What about the relative viability (NCI-H441; first compound 0.005 µM) of the same compound?
Answer: 0.294

Question: What about the relative viability (NCI-H441; first compound 0.01581 µM) of the same compound?
Answer: 0.288

Question: And the relative viability (NCI-H441; first compound 0.05 µM)?
Answer: 0.42

Question: What about the relative viability (NCI-H441; first compound 0.1581 µM) of the same compound?
Answer: 0.351

Question: What about the relative viability (NCI-H441; first compound 0.5 µM) of the same compound?
Answer: 0.336

Question: What about the relative viability (NCI-H520; first compound 0.005 µM) of the same compound?
Answer: 0.249

Question: What about the relative viability (NCI-H520; first compound 0.01581 µM) of the same compound?
Answer: 0.234

Question: What about the relative viability (NCI-H520; first compound 0.05 µM) of the same compound?
Answer: 0.268

Question: What about the relative viability (NCI-H520; first compound 0.1581 µM) of the same compound?
Answer: 0.235

Question: What about the relative viability (NCI-H520; first compound 0.5 µM) of the same compound?
Answer: 0.229

Question: And the relative viability (NCI-H647; first compound 0.005 µM)?
Answer: 0.271

Question: What about the relative viability (NCI-H647; first compound 0.01581 µM) of the same compound?
Answer: 0.215

Question: What about the relative viability (NCI-H647; first compound 0.05 µM) of the same compound?
Answer: 0.17

Question: What about the relative viability (NCI-H647; first compound 0.1581 µM) of the same compound?
Answer: 0.206

Question: What about the relative viability (NCI-H647; first compound 0.5 µM) of the same compound?
Answer: 0.133

Question: What about the relative viability (PC-14; first compound 0.005 µM) of the same compound?
Answer: 0.223

Question: And the relative viability (PC-14; first compound 0.01581 µM)?
Answer: 0.154

Question: And the relative viability (PC-14; first compound 0.05 µM)?
Answer: 0.23

Question: And the relative viability (PC-14; first compound 0.1581 µM)?
Answer: 0.313

Question: And the relative viability (PC-14; first compound 0.5 µM)?
Answer: 0.146

Question: What about the relative viability (RERF-LC-KJ; first compound 0.005 µM) of the same compound?
Answer: 1.32

Question: And the relative viability (RERF-LC-KJ; first compound 0.01581 µM)?
Answer: 1.23

Question: And the relative viability (RERF-LC-KJ; first compound 0.05 µM)?
Answer: 1.17

Question: And the relative viability (RERF-LC-KJ; first compound 0.1581 µM)?
Answer: 1.18

Question: And the relative viability (RERF-LC-KJ; first compound 0.5 µM)?
Answer: 1.04

Question: What about the relative viability (SW 900; first compound 0.005 µM) of the same compound?
Answer: 0.146

Question: What about the relative viability (SW 900; first compound 0.01581 µM) of the same compound?
Answer: 0.163

Question: And the relative viability (SW 900; first compound 0.05 µM)?
Answer: 0.177

Question: What about the relative viability (SW 900; first compound 0.1581 µM) of the same compound?
Answer: 0.199

Question: What about the relative viability (SW 900; first compound 0.5 µM) of the same compound?
Answer: 0.132
